Experimental findings from the supplement of paper PMC10307832 are described below.

Experiment in all cases: relative viability (nuclei count vs DMSO), 5 days (fraction); higher = more cells survive
One assay concerns NCI-H1623. In a few lines: (§1)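 Cells from lung cancer lines were seeded into 1536-well plates and, one day later, dosed by pin tool. Treatments were either a single drug or a fixed dose of an anchor drug with five library-drug doses (not always all listed) in √10 steps. After 5 days, nuclei were stained in a one-step fixation (final 0.05% Triton X-100, 1% formaldehyde, 1 ug/ml Hoechst) and counted on 4× images, and relative viability is the treated-to-vehicle nuclei ratio, as the median of duplicate plates.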

For a further assay, the system named is ABC-1. In a few lines: as §1
In the next assay the test system is NCI-H2009. In a few lines:
as §1

Another assay deals with EMC-BAC-2. Summed up:
as §1

For a further assay, the system named is NCI-H2228. In a few lines: as §1
The next assay deals with A549. In a few lines:
as §1

SMILES strings stand for the structures.

For `Cc1cn(-c2cc(NC(=O)c3ccc(C)c(Nc4nccc(-c5cccnc5)n4)c3)cc(C(F)(F)F)c2)cn1` [Nilotinib] + Cc1nc(Nc2ncc(C(=O)Nc3c(C)cccc3Cl)s2)cc(N2CCN(CCO)CC2)n1 [Dasatinib] (partner 0.075 µM), the relative viability in the assay on NCI-H1623 (first compound 0.001 µM) came to 0.597; with NCI-H1623 (first compound 0.003162 µM), 0.531; in the assay on NCI-H1623 (first compound 0.01 µM) it was 0.601; in the assay on NCI-H1623 (first compound 0.03162 µM), 0.508; with NCI-H1623 (first compound 0.1 µM) it was 0.408; in the assay on ABC-1 (first compound 0.001 µM), 0.557. Further, the relative viability in the assay on ABC-1 (first compound 0.003162 µM) came to 0.637; in the assay with ABC-1 (first compound 0.01 µM) it was 0.643; in the assay on ABC-1 (first compound 0.03162 µM), 0.554; in the assay on ABC-1 (first compound 0.1 µM) it was 0.24; in the assay on NCI-H2009 (first compound 0.001 µM), 0.278; with NCI-H2009 (first compound 0.003162 µM), 0.258. Further, the relative viability in the assay with NCI-H2009 (first compound 0.01 µM) was 0.261; in the assay on NCI-H2009 (first compound 0.03162 µM), 0.212; with NCI-H2009 (first compound 0.1 µM) it was 0.199; in the assay on EMC-BAC-2 (first compound 0.001 µM), 0.308; with EMC-BAC-2 (first compound 0.003162 µM) it was 0.308; in the assay with EMC-BAC-2 (first compound 0.01 µM), 0.325. Also, the relative viability with EMC-BAC-2 (first compound 0.03162 µM) turned out to be 0.27; in the assay on EMC-BAC-2 (first compound 0.1 µM), 0.296; in the assay on NCI-H2228 (first compound 0.003162 µM) it was 0.622; in the assay on NCI-H2228 (first compound 0.01 µM), 0.628; with NCI-H2228 (first compound 0.03162 µM), 0.424; in the assay with NCI-H2228 (first compound 0.1 µM), 0.159.
`Cc1cn(-c2cc(NC(=O)c3ccc(C)c(Nc4nccc(-c5cccnc5)n4)c3)cc(C(F)(F)F)c2)cn1` [Nilotinib] + N=C(N)NC(=N)NCCc1ccccc1 [Phenformin] (partner 250 µM): the relative viability in the assay on A549 (first compound 0.001 µM) was 0.147; in the assay with A549 (first compound 0.003162 µM), 0.27; with A549 (first compound 0.01 µM) it was 0.274; in the assay with A549 (first compound 0.03162 µM), 0.172; in the assay on A549 (first compound 0.1 µM), 0.14; with NCI-H1623 (first compound 0.001 µM) it was 0.578. The relative viability in the assay with NCI-H1623 (first compound 0.003162 µM) came to 0.585; with NCI-H1623 (first compound 0.01 µM), 0.605; with NCI-H1623 (first compound 0.03162 µM), 0.566; with NCI-H1623 (first compound 0.1 µM), 0.601; in the assay on ABC-1 (first compound 0.001 µM) it was 0.219; in the assay on ABC-1 (first compound 0.003162 µM), 0.243. Besides, the relative viability in the assay with ABC-1 (first compound 0.01 µM) is 0.259; in the assay with ABC-1 (first compound 0.03162 µM) it was 0.249; with ABC-1 (first compound 0.1 µM), 0.264; in the assay with NCI-H2009 (first compound 0.001 µM) it was 0.417; in the assay on NCI-H2009 (first compound 0.003162 µM), 0.464; in the assay with NCI-H2009 (first compound 0.01 µM), 0.463. Also, the relative viability in the assay on NCI-H2009 (first compound 0.03162 µM) was found to be 0.387; with NCI-H2009 (first compound 0.1 µM), 0.338; in the assay on EMC-BAC-2 (first compound 0.001 µM) it was 0.474; in the assay with EMC-BAC-2 (first compound 0.003162 µM) it was 0.553; with EMC-BAC-2 (first compound 0.01 µM) it was 0.491; in the assay on EMC-BAC-2 (first compound 0.03162 µM), 0.44. The relative viability in the assay with EMC-BAC-2 (first compound 0.1 µM) stood at 0.484; with NCI-H2228 (first compound 0.003162 µM), 0.388; in the assay on NCI-H2228 (first compound 0.01 µM), 0.383; in the assay on NCI-H2228 (first compound 0.03162 µM) it was 0.259; with NCI-H2228 (first compound 0.1 µM), 0.278.
`CN1CCN(CCOc2cc(OC3CCOCC3)c3c(Nc4c(Cl)ccc5c4OCO5)ncnc3c2)CC1` [Saracatinib] + CCNC(=O)c1noc(-c2cc(C(C)C)c(O)cc2O)c1-c1ccc(CN2CCOCC2)cc1 [Luminespib] (partner 0.01 µM): the relative viability in the assay with NCI-H1623 (first compound 0.02 µM) was 0.527; in the assay with NCI-H1623 (first compound 0.2 µM) it was 0.383; in the assay on NCI-H1623 (first compound 0.6325 µM), 0.522; in the assay with NCI-H1623 (first compound 2 µM), 0.433; in the assay with ABC-1 (first compound 0.02 µM), 0.721; in the assay with ABC-1 (first compound 0.2 µM), 0.43. Besides, the relative viability stood at 0.599 in the assay with ABC-1 (first compound 0.6325 µM); 0.766 in the assay on ABC-1 (first compound 2 µM); 0.997 with NCI-H2009 (first compound 0.02 µM); 1.04 in the assay with NCI-H2009 (first compound 0.2 µM); 0.951 in the assay with NCI-H2009 (first compound 0.6325 µM); 0.913 in the assay on NCI-H2009 (first compound 2 µM). In addition, the relative viability was found to be 1.21 with EMC-BAC-2 (first compound 0.02 µM); 0.894 with EMC-BAC-2 (first compound 0.2 µM); 1.16 in the assay on EMC-BAC-2 (first compound 0.6325 µM); 0.978 in the assay with EMC-BAC-2 (first compound 2 µM); 0.157 with NCI-H2228 (first compound 0.02 µM); 0.167 with NCI-H2228 (first compound 0.2 µM). For the same molecule, the figures for the relative viability with NCI-H2228 (first compound 0.6325 µM) and with NCI-H2228 (first compound 2 µM) were 0.0897 and 0.116, respectively.
For `CN1CCN(CCOc2cc(OC3CCOCC3)c3c(Nc4c(Cl)ccc5c4OCO5)ncnc3c2)CC1` [Saracatinib] + Cc1nc(Nc2ncc(C(=O)Nc3c(C)cccc3Cl)s2)cc(N2CCN(CCO)CC2)n1 [Dasatinib] (partner 0.075 µM), the relative viability is 0.562 in the assay on NCI-H1623 (first compound 0.02 µM); 0.416 in the assay on NCI-H1623 (first compound 0.2 µM); 0.468 in the assay on NCI-H1623 (first compound 0.6325 µM); 0.406 in the assay with NCI-H1623 (first compound 2 µM); 0.673 in the assay with ABC-1 (first compound 0.02 µM); 0.591 in the assay with ABC-1 (first compound 0.2 µM). Further, the relative viability in the assay with ABC-1 (first compound 0.6325 µM) came to 0.616; in the assay on ABC-1 (first compound 2 µM) it was 0.514; in the assay on NCI-H2009 (first compound 0.02 µM) it was 0.298; in the assay on NCI-H2009 (first compound 0.2 µM), 0.274; in the assay on NCI-H2009 (first compound 0.6325 µM), 0.262; in the assay with NCI-H2009 (first compound 2 µM) it was 0.265. For the same molecule, the relative viability amounted to 0.321 in the assay with EMC-BAC-2 (first compound 0.02 µM); 0.286 in the assay with EMC-BAC-2 (first compound 0.2 µM); 0.324 with EMC-BAC-2 (first compound 0.6325 µM); 0.294 in the assay on EMC-BAC-2 (first compound 2 µM); 0.501 with NCI-H2228 (first compound 0.02 µM); 0.556 in the assay on NCI-H2228 (first compound 0.2 µM). Also, the relative viability stood at 0.576 in the assay with NCI-H2228 (first compound 0.6325 µM) and 0.372 in the assay on NCI-H2228 (first compound 2 µM).
Regarding `CN1CCN(CCOc2cc(OC3CCOCC3)c3c(Nc4c(Cl)ccc5c4OCO5)ncnc3c2)CC1` [Saracatinib] + N=C(N)NC(=N)NCCc1ccccc1 [Phenformin] (partner 250 µM), the relative viability with A549 (first compound 0.02 µM) stood at 0.161; in the assay on A549 (first compound 0.2 µM) it was 0.121; with A549 (first compound 0.6325 µM), 0.156; in the assay with A549 (first compound 2 µM), 0.154; with NCI-H1623 (first compound 0.02 µM), 0.619; in the assay on NCI-H1623 (first compound 0.2 µM), 0.53. Moreover, the relative viability in the assay on NCI-H1623 (first compound 0.6325 µM) stood at 0.297; with NCI-H1623 (first compound 2 µM), 0.395; with ABC-1 (first compound 0.02 µM) it was 0.251; with ABC-1 (first compound 0.2 µM), 0.238; in the assay with ABC-1 (first compound 0.6325 µM), 0.231; with ABC-1 (first compound 2 µM) it was 0.215. Besides, the relative viability with NCI-H2009 (first compound 0.02 µM) was 0.45; in the assay with NCI-H2009 (first compound 0.2 µM) it was 0.428; in the assay on NCI-H2009 (first compound 0.6325 µM), 0.389; in the assay on NCI-H2009 (first compound 2 µM), 0.334; in the assay on EMC-BAC-2 (first compound 0.02 µM) it was 0.521; in the assay on EMC-BAC-2 (first compound 0.2 µM), 0.432. Besides, the relative viability stood at 0.418 in the assay on EMC-BAC-2 (first compound 0.6325 µM); 0.35 with EMC-BAC-2 (first compound 2 µM); 0.345 with NCI-H2228 (first compound 0.02 µM); 0.327 in the assay on NCI-H2228 (first compound 0.2 µM); 0.346 in the assay with NCI-H2228 (first compound 0.6325 µM); 0.194 in the assay on NCI-H2228 (first compound 2 µM).
